Values of other authors as cited in patent US20230056424A1, “PREVENTION OF THE CONVERSION OF PHARMACEUTICAL AGENTS INTO TOXIC N-NITROSAMINE COMPOUNDS” (ALFRED E. TIEFENBACHER (GMBH & CO. KG), priority 2021, published 2023).

Settings: standards established by the health authorities

## O=NN1C[C@H]2C[C@@H](C1)c1cc3nccnc3cc12 [N-nitroso-varenicline]
  maximum allowed daily intake: 37 ng/day
